Patent US9795652B2, “Use of endogenous antioxidant proteins in the treatment of stroke” (University of South Florida, priority 2010, dated 2017)

Tested on: primary rat oligodendrocyte cultures
Experiment: LIF protection of oligodendrocytes from oxygen glucose deprivation (extracellular LDH)
Assay type: cell-based
Conditions: 24 hours OGD
Description: OL cell death in culture was determined using the LDH assay (Takara Bio, Inc., Madison, Wis.), since cell death is associated with LDH release through the plasma membrane. LDH is present in a large number of tissues, like the heart, liver, kidney, skeletal muscle, brain, blood cells, and lungs. Tissue breakdown releases LDH, thereby elevating circulating LDH and indicating tissue damage. Briefly, 100 μl of tissue culture media from each experimental group was added to a 96-well plate and 100 μl of LDH reagent was added to each well. Plates were incubated for 30 min at 25° C. and absorbances were read on a microplate reader at a 548 nm wavelength. The media from HUCB cell only cultures served as a control for HUCB cell death. The absorbance of HUCB cell only media, as well as the absorbance of media only, was subtracted from the total absorbance of the OL wells to eliminate background LDH activity.
An oxygen deprivation model was used to test the effect of LIF on primary rat oligodendrocyte cultures. Cells were grown in neurobasal medium containing B27 and […] glutamine prior to OGD. To simulate ischemic conditions, the neurobasal medium was replaced with DMEM containing no glucose (OGD). The cells were then exposed to 1% O2, 5% CO2 and 94% N2 for 24 hours. No LIF (OGD) or LIF was added to the cells, at the concentrations indicated. […]

leukemia inhibitory factor [LIF]
extracellular LDH levels compared to untreated (OGD) (LIF 100 pg): about 47.6% | extracellular LDH compared to untreated cells (LIF 50 ng): approximately 2.7%
